Assay results published in PMC10780165 (Molecules, 2023).
Where a name gives a salt, the structure may show the parent alone. Read-outs that look alike come from different tables or passages of the source. Marks after values point to notes of the source that are not given here.

Key:
[1] = target: T1, eqBChE (Equus caballus, UniProt P81908); conditions: same conditions, cited from earlier work
T1 construct: BChE (equine serum BChE (eqBChE)); purchased Sigma-Aldrich (Shanghai, PRC); host or cells: equine serum
T1 sequence (P81908 whole entry): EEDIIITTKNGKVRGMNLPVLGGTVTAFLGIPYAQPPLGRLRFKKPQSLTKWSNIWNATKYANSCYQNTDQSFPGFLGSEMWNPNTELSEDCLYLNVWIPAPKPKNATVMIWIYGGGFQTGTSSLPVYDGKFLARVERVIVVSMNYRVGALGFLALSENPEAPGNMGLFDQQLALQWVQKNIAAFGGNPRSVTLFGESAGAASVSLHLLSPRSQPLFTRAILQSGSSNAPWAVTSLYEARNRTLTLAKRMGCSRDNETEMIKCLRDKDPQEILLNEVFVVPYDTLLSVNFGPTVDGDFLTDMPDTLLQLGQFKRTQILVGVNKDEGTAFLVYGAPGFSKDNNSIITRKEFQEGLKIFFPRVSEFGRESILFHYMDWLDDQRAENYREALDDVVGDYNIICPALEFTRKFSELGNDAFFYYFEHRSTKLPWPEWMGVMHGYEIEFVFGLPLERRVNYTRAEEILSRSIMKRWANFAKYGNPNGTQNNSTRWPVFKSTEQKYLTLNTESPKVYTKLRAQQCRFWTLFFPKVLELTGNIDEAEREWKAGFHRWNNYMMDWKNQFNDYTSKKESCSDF

[2] = test system: AChE; conditions: cited from earlier work
[3] = target: T1, eqBChE; conditions: same conditions, cited from earlier work; remark: listed apart in the source
[4] = test system: BChE; conditions: cited from earlier work
[5] = target: T2, elAChE (electric eel AChE) (Electrophorus electricus, UniProt O42275); conditions: after pre-incubation with the enzyme for 60 min; read-out: elAChE IC50 Mean ± SD; cited from earlier work
T2 construct: purchased Sigma-Aldrich (Shanghai, PRC)
T2 sequence (O42275 24-633): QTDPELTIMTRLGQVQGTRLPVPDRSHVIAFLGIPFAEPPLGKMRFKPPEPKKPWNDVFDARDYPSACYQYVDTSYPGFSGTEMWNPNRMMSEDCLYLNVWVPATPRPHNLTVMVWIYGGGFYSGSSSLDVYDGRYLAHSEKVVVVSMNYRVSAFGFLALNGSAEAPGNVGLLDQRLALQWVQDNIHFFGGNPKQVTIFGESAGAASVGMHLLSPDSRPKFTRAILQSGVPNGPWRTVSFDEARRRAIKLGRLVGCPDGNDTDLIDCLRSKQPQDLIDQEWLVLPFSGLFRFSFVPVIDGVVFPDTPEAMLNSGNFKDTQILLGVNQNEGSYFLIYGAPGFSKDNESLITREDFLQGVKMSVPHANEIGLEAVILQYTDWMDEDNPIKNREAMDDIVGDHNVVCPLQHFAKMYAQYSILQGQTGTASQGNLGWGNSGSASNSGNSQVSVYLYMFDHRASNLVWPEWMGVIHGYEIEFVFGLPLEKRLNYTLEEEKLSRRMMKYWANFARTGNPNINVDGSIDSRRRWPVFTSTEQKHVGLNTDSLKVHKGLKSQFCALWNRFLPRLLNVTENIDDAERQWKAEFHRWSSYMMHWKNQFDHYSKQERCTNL

[6] = target: T2, elAChE (electric eel AChE); experiment: biochemical
Experimental: (§1) The inhibitory activities of the synthesized compounds on ChEs were evaluated utilizing elAChE and eqBChE.
(§2) The ChE inhibition abilities of the compounds were determined using a modified version of Ellman’s assay. All the experiments were conducted in 96-well plates, and the readings were obtained using an EnSpire Multimode 2300 plate reader (Perkin Elmer, MA, USA) or a multimode microplate reader (Berthold Technologies). elAChE, eqBChE, S-acetylthiocholine iodide (ATCh), S-butyrylthiocholine iodide (BTCh) and 5-5′-dithiobis (2-nitrobenzoic) acid (DTNB) were purchased from Sigma-Aldrich (Shanghai, PRC). ATCh and BTCh stock solutions were freshly prepared in water. A stock solution of DTNB (Ellman’s reagent) was prepared fresh in a sodium phosphate buffer (100 mM, pH 7, 0.15% NaHCO3 w/v). Stock solutions of drugs were prepared in a solution of acetonitrile and water (v:v = 1:9). The pH for the measurements was 8.
(§3) First, 25 μL aliquots of drug solutions at different concentrations were added to 200 μL of elAChE (0.04 U/mL) or eqBChE (0.1 U/mL) in a phosphate buffer (100 mM sodium phosphate buffer, pH 8), and the reaction system was pre-incubated at 37 °C for determined time periods. Then, 25 μL of a solution containing ATCh or BTCh (2.5 mM) and DTNB (3.4 mM) in the 100 mM sodium phosphate buffer was added to the reactions. Enzyme activity (vi) was determined by measuring the absorbance (412 nm) at 37 °C for 5 min. […] A sample containing phosphate buffer (pH 8) in place of the enzyme was analyzed for each drug concentration to account for the spontaneous conversion of the substrate into a product, and the values obtained were subtracted from each measured activity.
(§4) This method was based on the general measurement of ChE activity. […] The measurements were repeated three times for each concentration.

[7] = target: T3, eqBChE (equine serum BChE) (Equus caballus, UniProt P81908); experiment: Modified Ellman's assay, IC50 for eqBChE; type: biochemical; conditions: for fold less effective eqBChE inhibitor than the meta-position derivative: para- vs meta-position carbamate: MTR-13 vs MTR-1, MTR-14 vs MTR-2, MTR-15 vs MTR-3
T3 construct: BChE (equine serum BChE (eqBChE)); purchased Sigma-Aldrich (Shanghai, PRC); host or cells: equine serum
T3 sequence (P81908 whole entry): as the sequence (P81908 whole entry) above
Experimental: as §1, §2, §3, §4

[8] = target: T1, eqBChE; experiment: Kinetic study of eqBChE inhibition, carbamylation rate constant kI; type: biochemical, equine; conditions: pre-incubation 1-45 min, seven concentrations, read-out: kI, second-order carbamylation rate constant, Mean ± SD (converted)
Experimental: as §3

[9] = target: T1, eqBChE; experiment: Decarbamylation rate constant k3 of carbamylated eqBChE; type: biochemical, equine
[10] = elAChE IC50 Mean ± SD, after pre-incubation with the enzyme for 60 min, 37 °C, pH 8
[11] = after pre-incubation with the enzyme for 60 min, 37 °C, pH 8, read-out: eqBChE IC50 Mean ± SD
[12] = after pre-incubation with the enzyme for 60 min, 37 °C, pH 8, read-out: elAChE IC50 Mean ± SD

Structure (SMILES)	IC50 [7, 11] [nM]	IC50 [6, 12] [nM]	also measured
CN(C)C(=O)Oc1cc(OC(=O)N(C)C)cc(C(O)CNC(C)(C)C)c1 (stereo not shown) [Bambuterol]	–	–	kI (kI1), carbamylation rate constant, Mean ± SD ([1]; listed as bambuterol): 1.44 ± 0.02 ×10^5 M^−1 min^−1; kI (kI1), carbamylation rate constant, Mean ± SD [1]: 1.44 ± 0.02 ^a ×10^5 M^−1 min^−1; IC50 [2]: 30000 nM; k3, decarbamylation rate constant, Mean ± SD ([3]; listed as bambuterol): 0.0839 ± 0.0028 h⁻¹; k3, decarbamylation rate constant, Mean ± SD [3]: 0.0839 ± 0.0028 ^a ×h^−1; IC50 [4]: 3 nM; IC50 [5]: > 100000 nM
CCN(C)C(=O)Oc1cccc(C(O)CNC(C)(C)C)c1 (stereo not shown) [MTR-1, 3-(2-(Tert-butylamino)-1-hydroxyethyl)phenyl ethyl(methyl)carbamate Hydrochloride]	370 ± 20	–	IC50 [6, 10]: > 100000 nM
CCN(C)C(=O)Oc1cccc(C(O)CNC(C)(C)CC)c1 (stereo not shown) [MTR-2, 3-(1-Hydroxy-2-(tert-pentylamino)ethyl)phenyl Ethyl(methyl)carbamate hydrochloride]	170 ± 10	–	IC50 [6, 10]: > 100000 nM
CCN(C)C(=O)Oc1cccc(C(O)CN2CCCCC2)c1 (stereo not shown) [MTR-3, 3-(1-Hydroxy-2-(piperidin-1-yl)ethyl)phenyl Ethyl(methyl)carbamate]	–	> 100000	IC50 ([6]; read-out: IC50(AChE)): > 100000 nM; kinact/KI [8]: 4630 M⁻¹ s⁻¹; IC50 ([7]; as printed in nM in abstract and text, read-out: IC50(BChE)): 78 nM; nature of BChE inhibition ([9]; activity recovery after dilution): pseudo-irreversible; k3, decarbamylation rate constant, Mean ± SD ([9]; eqBChE, N-methyl-N-ethyl-carbamylated, dilution 1:300, 37 °C, pH 8): 0.0093 ± 0.0010 h⁻¹
CCN(C)C(=O)Oc1cccc(C(O)CNC2CCCCC2)c1 (stereo not shown) [MTR-4, 3-(2-(Cyclohexylamino)-1-hydroxyethyl)phenyl Ethyl(methyl)carbamate]	9 ± 0.4	79000 ± 4000	–
CCN(C)C(=O)Oc1cccc(C(O)CNC2CCCC2)c1 (stereo not shown) [MTR-5, 3-(2-(Cyclopentylamino)-1-hydroxyethyl)phenyl Ethyl(methyl)carbamate]	74 ± 5	92000 ± 7000	–
CCN(C)C(=O)Oc1cccc(C(O)CN2CCOCC2)c1 (stereo not shown) [MTR-6, 3-(1-Hydroxy-2-morpholinoethyl)phenyl Ethyl(methyl)carbamate]	2500 ± 200	> 100000	–
CCN(C)C(=O)Oc1cccc(C(O)CN2CCCC2)c1 (stereo not shown) [MTR-7, 3-(1-Hydroxy-2-(pyrrolidin-1-yl)ethyl)phenyl Ethyl(methyl)carbamate]	210 ± 10	78900 ± 900	–
CCN(C)C(=O)Oc1cccc(C(O)CNc2ccccc2)c1 (stereo not shown) [MTR-8, 3-(1-Hydroxy-2-(phenylamino)ethyl)phenyl Ethyl(methyl)carbamate]	320 ± 20	> 100000	–
CCN(C)C(=O)Oc1cccc(C(O)CNc2ccc(I)cc2)c1 (stereo not shown) [MTR-9, 3-(1-Hydroxy-2-((4-iodophenyl)amino)ethyl)phenyl Ethyl(methyl)carbamate]	1730 ± 50	> 100000	–
CCN(C)C(=O)Oc1cccc(C(O)CNc2ccc(F)cc2)c1 (stereo not shown) [MTR-10, 3-(2-((4-Fluorophenyl)amino)-1-hydroxyethyl)phenyl Ethyl(methyl)carbamate]	192 ± 7	> 100000	–
CCN(C)C(=O)Oc1cccc(C(O)CNC(C)(C)c2ccccc2)c1 (stereo not shown) [MTR-11, 3-(1-Hydroxy-2-((2-phenylpropan-2-yl)amino)ethyl)phenyl Ethyl(methyl)carbamate]	323 ± 8	> 100000	–
C#Cc1cccc(NCC(O)c2cccc(OC(=O)N(C)CC)c2)c1 (stereo not shown) [MTR-12, 3-(2-((3-Ethynylphenyl)amino)-1-hydroxyethyl)phenyl Ethyl(methyl)carbamate]	156 ± 7	> 100000	–
CCN(C)C(=O)Oc1ccc(C(O)CNC(C)(C)C)cc1 (stereo not shown) [MTR-13, 4-(2-(Tert-butylamino)-1-hydroxyethyl)phenyl Ethyl(methyl)carbamate]	8700 ± 300	> 100000	fold less effective eqBChE inhibitor than the meta-position derivative [7]: 22 fold
CCN(C)C(=O)Oc1ccc(C(O)CNC(C)(C)CC)cc1 (stereo not shown) [MTR-14, 4-(1-Hydroxy-2-(tert-pentylamino)ethyl)phenyl Ethyl(methyl)carbamate]	1700 ± 100	> 100000	fold less effective eqBChE inhibitor than the meta-position derivative [7]: ninefold
CCN(C)C(=O)Oc1ccc(C(O)CN2CCCCC2)cc1 (stereo not shown) [MTR-15, 4-(1-Hydroxy-2-(piperidin-1-yl)ethyl)phenyl Ethyl(methyl)carbamate]	420 ± 20	59000 ± 16000	–
